This note sets out measurements from patent publication EP1212309B1, “CASPASE INHIBITOR” (LG Chem Investment, Ltd., priority 1999, dated 2001).

For data set [1], the target named is T1, caspase-1 (Homo sapiens, UniProt P29466).
T1 construct: made in house
T1 sequence (P29466 120-297 limits assumed): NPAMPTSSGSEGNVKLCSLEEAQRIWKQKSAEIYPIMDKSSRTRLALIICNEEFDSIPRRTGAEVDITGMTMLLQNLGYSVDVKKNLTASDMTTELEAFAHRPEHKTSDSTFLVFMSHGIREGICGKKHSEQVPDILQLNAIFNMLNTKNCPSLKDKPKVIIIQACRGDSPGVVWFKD
T1 sequence (P29466 317-404 limits assumed): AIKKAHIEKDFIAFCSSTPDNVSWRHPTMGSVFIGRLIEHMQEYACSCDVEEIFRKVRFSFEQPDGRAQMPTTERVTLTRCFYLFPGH
Nature of the data set: Screening on caspases inhibiting activity (recombinant enzyme, fluorogenic AMC substrate). The note with it: Reversible Inhibitor. The class given is biochemical. How it is done:
(§1) In the present experiment, recombinant caspases were purified from a transformed bacterium after human caspase genes were cloned into the expression vector pET, and then used in the experiment (Thornberry, N.A. et .al. Nature, 1992, 356, 768. Thombeny, N.A. Methods in Enzymology, 1994, 615.).
(§2) Enzymatic activity was measured by a known procedure (Walker N.P.C. et al., Cell 1994, 78, 343). Briefly, 10 ng of recombinant protein was mixed with 50 mM Tris(pH 7.0), 1mM DTT, 0.5 mM EDTA, 10% Glycerol buffer containing 1∼100 µM of enzyme substrate, Ac-YVAD-AMC or Ac-DEVD-AMC and then the changes by isolated AMC at 37°C were recorded. The inhibitory activity for caspases was calculated from the early enzyme reaction rate by measuring the changes with fluorescence excited at […] and emitted at 460 nm (Range; Ki<100nM).

The test system of data set [2] is Jurkat T cell. Nature of the data set: MTT assay of cell death induced by Anti-FAS antibody CH11. In kind it is cell-based. Conditions: Jurkat T cell treated with Anti-FAS antibody CH11, MTT, read-out: ED50 FAS Induced cell death. In general terms: Tetrazolium dyes change colour on reduction, which living cells bring about.
Data set [3] relates to WI38 cells. Nature of the data set: Protection from IFNγ and anti-Fas antibody-induced apoptosis (XTT). The class given is cell-based, human. The note with it: 100% when Fas antibody was not treated; for viability ratio: WI38 cells. The protocol:
WI38 cells (human embryonal lung fibroblast) were grown in a medium containing DMEM-10% FBS within 10cm diameter dishes until reaching at confluency. The cells were seeded into a 24-well plate at day 1 and incubated overnight while the volume of medium was maintained to 400µℓ. […] At day 3, each 100 µℓ of test compound was added to the cells after diluting the 10mM stock compound in DMSO to final concentrations of 50, 10, 2, and 0.4 µ M, respectively. The cells were incubated for 2 hrs in order for allowing the compound to enter into the cells and then treated with 40ng/well of anti-Fas antibody(apoptosis was induced 2 hrs after antibody was treated and the incubation was continued overnight). The control was not treated with Fas antibody. […] After coloring, 100-200µℓ of the supernatant was transferred to a 96-well plate and the absorbance at 490 nm was read with ELISA plate reader. For the blank, XTT solution was added to the well containing the medium only. Plotting was determined by comparing with the control group (100% when Fas antibody was not treated).

Data set [4] has as its target T2, caspase-3 (Homo sapiens, UniProt P42574).
T2 construct: made in house
T2 sequence (P42574 29-175 limits assumed): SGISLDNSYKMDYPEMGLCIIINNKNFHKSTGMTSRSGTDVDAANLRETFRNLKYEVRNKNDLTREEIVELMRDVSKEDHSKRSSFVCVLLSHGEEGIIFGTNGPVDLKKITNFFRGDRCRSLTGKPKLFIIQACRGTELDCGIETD
T2 sequence (P42574 176-277 limits assumed): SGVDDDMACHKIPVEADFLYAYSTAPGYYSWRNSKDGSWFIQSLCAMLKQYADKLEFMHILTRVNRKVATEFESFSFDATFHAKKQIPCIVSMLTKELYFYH
Put plainly: Screening on caspases inhibiting activity (recombinant enzyme, fluorogenic AMC substrate). In kind it is biochemical. The note with it: Irreversible Inhibitors. The protocol: as §1, §2

Several values for one entry are separate records, joined by “and”; a condition that tells them apart may be missing. Identical values can stand only once. Like-named read-outs stand apart in the source and are kept apart here.

As a reminder, the Ki is the equilibrium dissociation constant of an inhibitor or competing ligand from its target. With `CC(C)[C@H](NC(=O)c1ccc2ccccc2c1)C1=NOC(COc2ccccc2)(C(=O)N[C@@H](CC(=O)O)C(=O)COc2ccc3ccccc3c2)C1` (stereo partly drawn) [Compound 25mp, (3S)-3-{3-[(1S)-1-(naphthalene-2-carbonylamino)-2-methyl-propyl]-5-phenoxymethyl-4,5-dihydro-isoxazole-5-carbonylamino}-4-keto-5-(2-naphthyloxy)-pent anoic acid], the Ki in data set [1] was found to be 0.0721 nM. In data set [2] (Homo sapiens), the EC50 was in the range of 1000 to 10000 nM.
For `CC(C)[C@H](NC(=O)c1c[nH]c2ccccc12)C1=NOC(Cc2ccccc2)(C(=O)N[C@@H](CC(=O)O)C(=O)COC(=O)c2c(Cl)cccc2Cl)C1` (stereo partly drawn) [Compound 66, (3S)-3-{3-[2-methyl-(1S)-1-(indole-3-carbonylamino)-propyl]-5-phenylmethyl - 4,5-dihydro-isoxazole-5-carbonylamino}-4-keto-5-(2,6-dichlorobenzoyloxy)-pe ntanoic acid], the EC50 in data set [2] (Homo sapiens) was 1000 to 10000 nM.
As for `CC(C)[C@H](NC(=O)[C@H](CCC(=O)O)NC(=O)[C@H](CC(=O)O)NC(=O)OCc1ccccc1)C(=O)N[C@@H](CC(=O)O)C(=O)CCl` [z-DEVD-cmk, reference compound], the viability ratio in data set [3] (Conc. 0.4 µM) was 15.13%; in data set [3] (Conc. 2 µM), 16.27%; in data set [3] (Conc. 10 µM), 27.38%; in data set [3] (Conc. 50 µM, 50 µM), 47.3% and 47.32%.
Consider `CC(C)[C@H](NC(=O)CCC(=O)O)C1=NOC(C)(C(=O)N[C@@H](CC(=O)O)C(=O)COc2ccccc2)C1` (mixture of isomers) [Compound 47, (3S)-3-{3-[2-methyl-(1S)-1-(succinoylamino)-propyl]-5-methyl-4,5-dihydro-isoxazole-5-carbonylamino}-4-keto-5-phenoxy-pentanoic acid], for which, in data set [2] (Homo sapiens), the EC50 was in the range of 1000 to 10000 nM.
Turning to `CC(C)[C@H](NC(=O)c1cccc2ccccc12)C1=NOC(C)(C(=O)N[C@@H](CC(=O)O)C(=O)COC(=O)c2c(Cl)cccc2Cl)C1` (stereo partly drawn) [Compound 68, (3S)-3-{3-[2-methyl-(1S)-1-(naphthalene-1-carbonylamino)-propyl]-5-methyl-4,5-dihydro-isoxazole-5-carbonylamino}-4-keto-5-(2,6-dichlorobenzoyloxy)-pen tanoic acid], the EC50 in data set [2] (Homo sapiens) was 1000 to 10000 nM.
As for “(3S)-3-{3-[(1S)-1-(quinoline-2-yl-carbonylamino)-2-methyl-propyl]-5-phenox ymethyl-4,5-dihydro-isoxazole-5-carbonylamino}-4-keto-pentanoic acid [Compound 22mp]”, the Ki in data set [1] worked out at 0.125 nM. Further, the EC50 in data set [2] fell in the range of 1000 to 10000 nM.
On to `CC(C)[C@H](NC(=O)c1cc2ccccc2[nH]1)C1=NOC(Cc2ccccc2)(C(=O)N[C@@H](CC(=O)O)C(=O)COC(=O)c2c(Cl)cccc2Cl)C1` (stereo partly drawn) [Compound 64, (3S)-3-{3-[2-methyl-(1S)-1-(indole-2-carbonylamino)-propyl]-5-phenylmethyl - 4,5-dihydro-isoxazole-5-carbonylamino}-4-keto-5-(2,6-dichlorobenzoyloxy)-pe ntanoic acid], for which, in data set [2] (Homo sapiens), the EC50 is 1000 to 10000 nM.
The same measure, in the same setting: the result for `CC(C)[C@H](NC(=O)c1cccc2ccccc12)C1=NOC(Cc2ccccc2)(C(=O)N[C@@H](CC(=O)O)C(=O)CN2CCCCC2)C1` (stereo partly drawn) [Compound 48, (3S)-3-{3-[2-methyl-(1S)-1-(1-naphtalenylcarbonylamino)-propyl]-5-phenylmethyl-4,5-dihydro-isoxazole-5-carbonylamino}-4-keto-5-(1-piperidinyl)-pentanoic acid] reads 1000 to 10000 nM.
Take `CCCCCC1(C(=O)N[C@@H](CC(=O)O)C(=O)COC(=O)c2c(Cl)cccc2Cl)CC([C@@H](NC(=O)CCC(=O)O)C(C)C)=NO1` (stereo partly drawn) [Compound 90, (3S)-3-{3-[2-methyl-(1S)-1-(succinoylamino)-propyl]-5-n-pentyl-4,5-dihydro-isoxazole-5-carbonylamino}-4-keto-5-(2,6-dichlorobenzoyloxy)-pentanoic acid]: the “Kobs/[I] for caspase-3” value in data set [4] was 80100 M⁻¹ s⁻¹.
With `CC(C)[C@H](NC(=O)c1ccc2ccccc2c1)C1=NOC(C(=O)N[C@@H](CC(=O)O)C(=O)COc2ccc3ccccc3c2)C1` (stereo partly drawn) [Compound 29, (3S)-3-{3-[(1S)-1-(naphthalene-2-carbonylamino)-2-methyl-propyl]-4,5-dihydro-isoxazole-5-carbonylamino}-4-keto-5-(2-naphthyloxy)-pentanoic acid], the EC50 in data set [2] (Homo sapiens) lay in the range of 1000 to 10000 nM.
For `CC(C)[C@H](NC(=O)c1ccc2ccccc2c1)C1=NOC(Cc2ccccc2)(C(=O)N[C@@H](CC(=O)O)C(=O)COC(=O)c2c(Cl)cccc2Cl)C1` (stereo partly drawn) [Compound 28, (3S)-3-{3-{(1S)-1-(naphthalene-2-carbonylamino)-2-methyl-propyl]-5-phenylmethyl-4,5-dihydro-isoxazole-5-carbonylamino}-4-keto-5-(2,6-dichlorobenzoyloxy)-pentanoic acid], in data set [3] (Homo sapiens, WI-38, WI38 cells, Conc. 0.4 µM, read-out: viability ratio), the viability at 0.4 µM was determined as 14.7%. Further, in data set [3] (Homo sapiens, WI-38, WI38 cells, Conc. 2 µM, read-out: viability ratio), the viability at 2 µM is 17.3%. The viability at 10 µM in data set [3] (Homo sapiens, WI-38, WI38 cells, Conc. 10 µM, read-out: viability ratio) was 82.4%. Moreover, in data set [3] (Homo sapiens, WI-38, WI38 cells, Conc. 50 µM, read-out: viability ratio), the viability at 50 µM was found to be 90%. Also, in data set [3] (Conc. 50 µM, listed as Comp 28, 50 µM), the viability ratio was determined as 90.39%.
Regarding `CC(C)[C@H](NC(=O)c1ccc2ccccc2n1)C1=NOC(Cc2ccccc2)(C(=O)N[C@@H](CC(=O)O)C(=O)COc2ccccc2)C1` (stereo partly drawn) [Compound 43mp, (3S)-3-{3-[2-methyl-(1S)-1-(quinoline-2-yl-carbonylamino)-propyl]-5-phenylmethyl-4,5-dihydro-isoxazole-5-carbonylamino}-4-keto-5-phenoxy-pentanoic acid], in data set [1], the Ki was found to be 4 nM. The EC50 in data set [2] (Homo sapiens) was 1000 to 10000 nM.
On to `CC(C)[C@H](NC(=O)c1ccc2ccccc2c1)C1=NOC(C(=O)N[C@@H](CC(=O)O)C(=O)COc2ccccc2)C1` (stereo partly drawn) [Compound 30, (3S)-3-{3-[2-methyl-(1S)-1-(2-naphthalenecarbonylamino)-propyl]-4,5-dihydro-isoxazole-5-carbonylamino}-4-keto-5-phenoxy-pentanoic acid], for which the EC50 in data set [2] (Homo sapiens) lay in the range of 1000 to 10000 nM.
The same measure, in the same setting: the result for `CC(C)[C@H](NC(=O)CCC(=O)O)C1=NOC(C)(C(=O)N[C@@H](CC(=O)O)C(=O)COc2ccc3ccccc3c2)C1` (single isomer, unassigned) [Compound 81] reads 1000 to 10000 nM.
In the case of `CC(C)[C@H](NC(=O)CCC(=O)O)C1=NOC(C)(C(=O)N[C@@H](CC(=O)O)C(=O)CN2CCCCC2)C1` (stereo partly drawn) [Compound 77, (3S)-3-{3-[2-methyl-(1S)-1-(succinoylamino)-propyl]-5-methyl-4,5-dihydro-isoxazole-5-carbonylamino}-4-keto-5-(N-piperidine)-pentanoic acid], in data set [1], the Ki amounted to 28900 nM. Moreover, in data set [2] (Homo sapiens), the EC50 was 1000 to 10000 nM.
For `CC(=O)N[C@@H](CC(=O)O)C(=O)N[C@@H](CCC(=O)O)C(=O)N[C@H](C(=O)N[C@H](C=O)CC(=O)O)C(C)C` [Ac-DEVD-CHO, reference compound], the viability ratio is 12.16% in data set [3] (Conc. 0.4 µM); 14.75% in data set [3] (Conc. 2 µM); 19.16% in data set [3] (Conc. 10 µM); 35.1% and 35.14% in data set [3] (Conc. 50 µM, 50 µM).
On to `CC1(C(=O)N[C@@H](CC(=O)O)C(=O)COc2ccccc2)CC([C@H](CCC(=O)O)NC(=O)CCC(=O)O)=NO1` (mixture of isomers) [Compound 46, (3S)-3-{3-[(1S)-1-(succinoylamino)-3-carboxy-propyl]-5-methyl-4,5-dihydro-isoxazole-5-carbonylamino}-4-keto-5-phenoxy-pentanoic acid], for which the EC50 in data set [2] (Homo sapiens) is 1000 to 10000 nM.
